The nature of data set [1]: Storage stability of clindamycin phosphate solutions. It counts as physicochemical. Conditions: solution in water; elevated temperatures. The source says: For the clindamycin phosphate solution, a maximum of about 6% salt is soluble in water. This solution is not stable upon long-term storage at elevated temperatures. In order to utilize the chamber in a chamber delivery system wherein the contents of a small chamber are combined with the contents of a larger chamber, compositions containing a concentration of clindamycin phosphate higher than 6% are desirable. In accordance with the present disclosure, solutions containing concentrations of clindamycin in excess of 6% in a minimum amount of water may be prepared by using co-solvents such as glycerin. Clindamycin phosphate by itself is not soluble in glycerin alone. […] Thus, the present compositions may contain a solution of water, clindamycin and glycerin, wherein the amount of water is insufficient alone to solubilize the clindamycin. The term “solubilize” as used with respect to solubilizing clindamycin refers to the ability to dissolve clindamycin and optionally with heating and stirring and maintaining clindamycin in solution at room temperature for at least 24 hours.

A short description of data set [2]: Solubility of clindamycin phosphate in water, glycerin and water/glycerin co-solvent. It counts as physicochemical. From the text:
For the clindamycin phosphate solution, a maximum of about 6% salt is soluble in water. This solution is not stable upon long-term storage at elevated temperatures. In order to utilize the chamber in a chamber delivery system wherein the contents of a small chamber are combined with the contents of a larger chamber, compositions containing a concentration of clindamycin phosphate higher than 6% are desirable. In accordance with the present disclosure, solutions containing concentrations of clindamycin in excess of 6% in a minimum amount of water may be prepared by using co-solvents such as glycerin. Clindamycin phosphate by itself is not soluble in glycerin alone. […] Thus, the present compositions may contain a solution of water, clindamycin and glycerin, wherein the amount of water is insufficient alone to solubilize the clindamycin. The term “solubilize” as used with respect to solubilizing clindamycin refers to the ability to dissolve clindamycin and optionally with heating and stirring and maintaining clindamycin in solution at room temperature for at least 24 hours. […] By increasing the concentration of clindamycin in solution by means of a co-solvent such as glycerin, the present methods make it possible to dissolve the salt in a small amount of water. […]

Regarding `CCC[C@@H]1C[C@@H](C(=O)N[C@@H]([C@H]2O[C@H](SC)[C@H](OP(=O)(O)O)[C@@H](O)[C@H]2O)[C@H](C)Cl)N(C)C1` [clindamycin phosphate], the “stability of aqueous solution upon long-term storage” value in data set [1] was “not stable”. Further, in data set [2] (glycerin alone, no water), the “solubility in glycerin alone” value is “not soluble”. For the same compound, the “maximum salt soluble in water” value in data set [2] (water alone) is “about 6%”.

The values are drawn from US20050255131A1, “Clindamycin compositions and delivery system therefor” (priority 2004, published 2005).
